Source: patent publication US8785388B2, “TAT-BH3 methods for treating arthritis” (Saint Louis University, priority 2007, dated 2014)
Square brackets hold non-standard residues; d marks the D form. Peptide text beside a SMILES is read from it. Orn = NCCC[C@H](N)C(=O)O

Tests used:
Mcl-1 = Mcl-1 (Homo sapiens, UniProt Q07820); assay: Affinity for Mcl-1; assay type: binding; details: statement without data
peripheral blood cells = assay: Peripheral blood cell counts (flow cytometry, hematology analyzer); assay type: in vivo, mice; details: as compared to TAT-inactive BH3 and saline
[1] = Toxicity: serum ALP, AST, ALT, blood urea nitrogen and liver histology in arthritic mice; assay type: in vivo
Protocol: (§1) At each time point and prior to euthanasia, the degree of arthritis as indicated by joint swelling was quantitated by measuring two perpendicular diameters of the ankles using a caliper (Lange Caliper: Cambridge Scientific Industries, Cambridge Mass.). Joint circumference was calculated using the geometric formula of ellipse circumference (2πX √(a^2+b^2)/2). Following euthanasia, serum was isolated from peripheral blood by cardiac stick and ankle joints were removed. One of the ankle joints was fixed in 10% neutral buffered formalin for 24 hours, decalcified in EDTA-decalcification buffer for two weeks, embedded in paraffin, and sectioned. The other ankle joint was placed in liquid nitrogen, grounded into a fine powder by mortal and pestle, digested in protein lysis buffer ([…], 0.5% NP-40, 50 mM Tris, and 2 mM EDTA) in the presence of phosphatase and protease inhibitors, and homogenized on ice for 20 seconds. To examine any toxicity due to systemic delivery of TAT-Bim peptides, alkaline phosphatase (ALP), […] (AST), alanine aminotransferase (ALT), and blood urea nitrogen levels were measured.
Paraffin embedded ankle or liver sections were stained with hematoxylin and eosin (H&E), Safranin O and methyl green. Histopathological scoring was performed and ankle sections were evaluated by examining at least 3 sections/ankle and 3 fields/section at 400× magnification. H&E ankle sections were scored on a 0-5 scale for inflammation, with 0=normal, 1=minimal infiltration, 2=mild infiltration, 3=moderate infiltration, […], mad 5=severe infiltration. Bone erosion was scored on a 0-5 scale by viewing H&E ankle sections, with 0=no or normal bone resorption, 1=small areas of resorption, 2=more numerous areas of resorption, 3=obvious resorption, 4=full thickness defects in the bone without distortion of the profile, 5=full thickness defects in the bone with distortion of the profile. H&E ankle stained sections were scored on a 0-5 scale for pannus formation, with 0=no pannus formation, 1=minimal pannus formation, 2=mild pannus formation, 3=moderate pannus formation, 4=marked pannus formation, and 5=severe pannus formation. H&E and Safranin 0 and methyl green sections were scored on a 0-5 scale for cartilage damage, with 0=no damage, 1-2=superficial cartilage destruction, 3-4=cartilage destruction to middle zone, 5=cartilage destruction to tide mark. Polymorphonuclear (PMN) leukocyte infiltration: 0=no PMNs, 1=rare scattered PMNs, 2=more frequent scattered PMNs, 3=small clusters of PMNs, 4=larger clusters of PMNs, mad 5=sheets of PMNs (abscess). Histopathological scoring was conducted on an Olympus BX40 microscope (1000×). Photographs were taken on a Nikon microscope equipped with the Nikon digital camera DMX 1200.

[2] = system: IL-1β, TNFα, MCP-1, KC, MMP-3; assay: ELISA of pro-inflammatory molecules in ankle extracts; assay type: in vivo, mouse; set-up: IL-1β / TNFα / MCP-1 / KC / MMP-3: unit not given here; details: ankle joints
Protocol: as §1
For detection of mouse IL-1β, TNFα, MCP-1, KC, or MMP-3 in ankle extracts, sandwich ELISAs were performed according to the manufacturer's instructions (R & D Systems, Minneapolis, Minn.). The sensitivity for all cytokines was 15.6 pg/mL for IL-1β and KC, 7.813 pg/mL for TNFα and MCP-1, and 0.312 ng/mL for MMP3. ELISAs were quantitated by absorbance at 450 nm on a microplate reader (BioRad, Hercules, Calif.). Data obtained using ELISA on ankle extracts were normalized by the total protein concentration (μg/μL) for each individual ankle extract.
Mice were euthanized at seven days post-serum transfer. Ankle joints from each mouse were isolated, snap frozen, grounded into a fine powder, lysed, and examined for IL-1β, TNFα, MCP-1, KC, and MMP-3 production using an ELISA. Data are shown as μg/μL per joint. Values represent the mean±standard error, which were compared by Student's t-test.

[3] = TAT-BH3 vs TAT-inactive BH3 and saline
[4] = as compared to TAT-inactive BH3
[5] = seven days post-serum transfer, mean ± standard error

Chain of Mcl-1 (Q07820 whole entry, species assumed): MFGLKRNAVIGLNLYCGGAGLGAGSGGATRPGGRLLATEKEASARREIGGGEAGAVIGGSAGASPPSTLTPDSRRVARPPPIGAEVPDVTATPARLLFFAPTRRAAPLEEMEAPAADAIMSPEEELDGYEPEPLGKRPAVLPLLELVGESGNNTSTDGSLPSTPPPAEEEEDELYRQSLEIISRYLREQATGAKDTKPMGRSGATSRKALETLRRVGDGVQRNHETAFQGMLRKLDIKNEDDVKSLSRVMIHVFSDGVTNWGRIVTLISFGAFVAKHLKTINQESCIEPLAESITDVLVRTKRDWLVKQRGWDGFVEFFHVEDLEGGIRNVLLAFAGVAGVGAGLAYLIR

In the case of `CC[C@H](C)[C@H](NC(=O)[C@H](CCCNC(=N)N)NC(=O)[C@H](CCCNC(=N)N)NC(=O)[C@H](CC(C)C)NC(=O)[C@H](CCC(=O)O)NC(=O)[C@H](CCC(N)=O)NC(=O)[C@H](C)NC(=O)[C@@H](NC(=O)[C@H](Cc1c[nH]c2ccccc12)NC(=O)[C@@H](NC(=O)[C@H](CCC(=O)O)NC(=O)[C@H](CCCNC(=N)N)NC(=O)[C@H](CCCNC(=N)N)NC(=O)[C@H](CCCNC(=N)N)NC(=O)[C@H](CCCN)NC(=O)[C@H](CCCNC(=N)N)NC(=O)[C@H](CCCNC(=N)N)NC(=O)[C@H](CCCCN)NC(=O)[C@H](CCCCN)NC(=O)[C@H](CCCNC(=N)N)NC(C)=O)[C@@H](C)CC)[C@@H](C)CC)C(=O)NCC(=O)N[C@@H](CC(=O)O)C(=O)N[C@@H](CCC(=O)O)C(=O)N[C@@H](Cc1ccccc1)C(=O)N[C@@H](CC(N)=O)C(=O)N[C@@H](C)C(=O)N[C@@H](Cc1ccc(O)cc1)C(=O)N[C@@H](Cc1ccc(O)cc1)C(=O)N[C@@H](C)C(=O)N[C@@H](CCCNC(=N)N)C(=O)O` [TAT-BH3] (Ac-RKKRR[Orn]RRREIWIAQELRRIGDEFNAYYAR-OH), the “affinity for Mcl-1” value (Mcl-1) is reported as “high affinity”, the number of splenocytes (peripheral blood cells) is reported as “did not reduce” and the ALT levels [1, 3] is reported as “statistical difference”. The BUN levels [1, 3] was “statistical difference”, the “increase in ALP levels” value [1, 4] was 1.7 fold and the “increase in AST levels” value [1, 4] was 1.5 fold. For the same compound, the “increase in ALP levels” value ([1]; as compared to saline) was 1.4 fold, the “increase in AST levels” value ([1]; as compared to saline) was 1.3 fold and the liver histology ([1]; liver sections of arthritic mice) was “no gross histologic abnormalities”. The IL-1β [2, 5] was 522 ± 127, the KC [2, 5] was 308 ± 78 and the MCP-1 [2, 5] was 131 ± 28. The MMP-3 [2, 5] was 9 ± 3, the TNFα [2, 5] was 4.5 ± 0.3 and the “change in level of TNFα” value ([2]; vs saline or TAT-inactive BH3) was “no change”. For the same compound, the “decrease in level of IL-1β” value ([2]; vs saline or TAT-inactive BH3) was 37%, the “levels of MMP-3 reduced” value ([2]; vs saline or TAT-inactive BH3) was 47% and the “production of KC diminished” value ([2]; vs saline or TAT-inactive BH3) was 28%. For the same compound, the “production of MCP-1 diminished” value ([2]; vs saline or TAT-inactive BH3) was 47%.
